From patent US20240199642A1, “METHOD FOR OBTAINING RIFAPENTINE WITH A NEW CRYSTALLINE FORM” (INTERQUIM S.A. DE C.V., priority 2021, published 2024)

Tests used:
[1] = hygroscopicity under normal handling and storage conditions; format: physicochemical
[2] = stability under normal storage conditions and normal formulation manipulations; format: physicochemical

In the case of `CO[C@H]1/C=C/O[C@@]2(C)Oc3c(C)c(O)c4c(O)c(c(/C=N/N5CCN(C6CCCC6)CC5)c(O)c4c3C2=O)NC(=O)/C(C)=C\C=C\[C@H](C)[C@H](O)[C@@H](C)[C@@H](O)[C@@H](C)[C@H](OC(C)=O)[C@@H]1C` [crystalline form of rifapentine, Rifapentine], the hygroscopicity ([1]; normal handling and storage conditions) is reported as “non-hydroscopic”, the hygroscopicity ([1]; normal storage conditions and normal formulation manipulations) is reported as “non-hygroscopic” and the stability [2] is reported as “stable”.
